Data on one molecule can be found in patent US6958347B2, “Aminophenanthridinone and aminophenanthridine as NPY-5 antagonists” (Pfizer Inc., priority 2002, dated 2005).

For this test, the target named is T1, Y1 (Homo sapiens, UniProt P25929).
T1 sequence (P25929 1-384): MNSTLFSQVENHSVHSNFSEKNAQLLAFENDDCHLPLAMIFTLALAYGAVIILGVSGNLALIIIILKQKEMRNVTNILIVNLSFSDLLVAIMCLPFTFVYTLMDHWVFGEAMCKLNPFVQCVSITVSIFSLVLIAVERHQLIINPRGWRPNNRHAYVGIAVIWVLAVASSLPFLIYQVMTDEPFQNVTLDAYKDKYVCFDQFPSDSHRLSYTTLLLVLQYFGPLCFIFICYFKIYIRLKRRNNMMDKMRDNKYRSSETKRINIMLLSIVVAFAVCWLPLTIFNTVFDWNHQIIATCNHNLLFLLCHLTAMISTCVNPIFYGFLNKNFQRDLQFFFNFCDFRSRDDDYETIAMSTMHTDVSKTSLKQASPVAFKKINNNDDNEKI
As to the kind of experiment: Endogenous NPY response of host Bowes melanoma cells (low levels of Y1 responses). The settings on record: 10 uM; human Bowes melanoma cells (HMCB).

As for `NC(N)=NCCC[C@@H](NC(=O)C(c1ccccc1)c1ccccc1)C(=O)NCc1ccc(O)cc1` [BIBP3226], the “block of the endogenous NPY response” value is on record as “completely blocks”.
